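Test compounds were applied to cells in 96-well plates for 48 hours at 5 doses. GI50 = concentration required for 50% inhibition of growth.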 Active and inactive are the calls of the source. Cut-off read from the data, not from the text of the source: active = GI50 up to about 1.1 µM and inactive = higher.
Experiments:
Assay in all cases: inhibition of tumour cell growth, NCI panel, 48 h
A498 = tested on: A498
CCRF-CEM = tested on: CCRF-CEM
EKVX = tested on: EKVX
HCT-116 = tested on: HCT-116
HL-60 = tested on: HL-60
HT-29 = tested on: HT-29
KM12 = tested on: KM12
M14 = tested on: M14
NCI-H226 = tested on: NCI-H226
OVCAR-3 = tested on: OVCAR-3
PC-3 = tested on: PC-3
RXF 393 = tested on: RXF 393
SF-295 = tested on: SF-295
SF-539 = tested on: SF-539
SK-MEL-28 = tested on: SK-MEL-28
SK-OV-3 = tested on: SK-OV-3
SNB-75 = tested on: SNB-75
SW-620 = tested on: SW-620
UACC-257 = tested on: UACC-257
UACC-62 = tested on: UACC-62

Cc1nc(-c2ccccc2)c(C)n2c1nc1ccccc12
GI50 (A498): 27.2 µM (inactive)
GI50 (CCRF-CEM): 30.7 µM (inactive)
GI50 (EKVX): 37.2 µM (inactive)
GI50 (HCT-116): 31.5 µM (inactive)
GI50 (HL-60): 16.5 µM (inactive)
GI50 (HT-29): 20.8 µM (inactive)
GI50 (KM12): 36.8 µM (inactive)
GI50 (M14): 20.3 µM (inactive)
GI50 (NCI-H226): 40.5 µM (inactive)
GI50 (OVCAR-3): 24.6 µM (inactive)
GI50 (PC-3): 29.9 µM (inactive)
GI50 (RXF 393): 25.1 µM (inactive)
GI50 (SF-295): 37.6 µM (inactive)
GI50 (SF-539): 35.6 µM (inactive)
GI50 (SK-MEL-28): 39.4 µM (inactive)
GI50 (SK-OV-3): 20.1 µM (inactive)
GI50 (SNB-75): 26.7 µM (inactive)
GI50 (SW-620): 33 µM (inactive)
GI50 (UACC-257): 38.1 µM (inactive)
GI50 (UACC-62): 19.3 µM (inactive)

CN(CCc1ccccn1)C(=S)N/N=C/c1ccccn1
GI50 (A498): 0.0194 µM (active)
GI50 (CCRF-CEM): < 0.01 µM (active)
GI50 (EKVX): 0.102 µM (active)
GI50 (HCT-116): < 0.01 µM (active)
GI50 (HL-60): < 0.01 µM (active)
GI50 (HT-29): < 0.0473 µM (active)
GI50 (KM12): 0.0719 µM (active)
GI50 (M14): < 0.0226 µM (active)
GI50 (NCI-H226): 0.0516 µM (active)
GI50 (OVCAR-3): < 0.01 µM (active)
GI50 (PC-3): 0.0456 µM (active)
GI50 (RXF 393): 0.126 µM (active)
GI50 (SF-295): 0.147 µM (active)
GI50 (SF-539): 0.0935 µM (active)
GI50 (SK-MEL-28): 0.442 µM (active)
GI50 (SK-OV-3): 0.376 µM (active)
GI50 (SNB-75): 7.5 µM (inactive)
GI50 (SW-620): 0.0916 µM (active)
GI50 (UACC-257): < 0.0213 µM (active)
GI50 (UACC-62): 0.195 µM (active)

COC(=O)C1C(O)C(C)C(=O)C(C)/C=C\C=C(C)C(=O)Nc2c(C)c(OC(C)=O)c3c(c2O)C(=O)C(C)=C2OCOC(=C23)C(C)=CC(C)(O)C(O)C(C)C1O (stereo not given)
GI50 (A498): 24.9 µM (inactive)
GI50 (CCRF-CEM): 20 µM (inactive)
GI50 (EKVX): 65.2 µM (inactive)
GI50 (HCT-116): 24.9 µM (inactive)
GI50 (HL-60): 18.6 µM (inactive)
GI50 (HT-29): 29.9 µM (inactive)
GI50 (KM12): 36.6 µM (inactive)
GI50 (M14): 25.4 µM (inactive)
GI50 (NCI-H226): 46.7 µM (inactive)
GI50 (OVCAR-3): 42.4 µM (inactive)
GI50 (PC-3): 25.1 µM (inactive)
GI50 (RXF 393): 31.1 µM (inactive)
GI50 (SF-295): 62.2 µM (inactive)
GI50 (SF-539): 47.4 µM (inactive)
GI50 (SK-MEL-28): 27.4 µM (inactive)
GI50 (SK-OV-3): > 100 µM (inactive)
GI50 (SNB-75): 49 µM (inactive)
GI50 (SW-620): 33.8 µM (inactive)
GI50 (UACC-257): 18.8 µM (inactive)
GI50 (UACC-62): 21.7 µM (inactive)

O=C1/C(=C/c2ccc(O)cc2)CCC1CNc1ccccc1 (stereo not given)
GI50 (A498): 17.9 µM (inactive)
GI50 (CCRF-CEM): 1.61 µM (inactive)
GI50 (EKVX): 18.3 µM (inactive)
GI50 (HCT-116): 5.64 µM (inactive)
GI50 (HL-60): 1.96 µM (inactive)
GI50 (HT-29): 11.5 µM (inactive)
GI50 (KM12): 6.65 µM (inactive)
GI50 (M14): 12.2 µM (inactive)
GI50 (NCI-H226): 17.9 µM (inactive)
GI50 (OVCAR-3): 14.6 µM (inactive)
GI50 (PC-3): 11.2 µM (inactive)
GI50 (RXF 393): 20.3 µM (inactive)
GI50 (SF-295): 15.9 µM (inactive)
GI50 (SF-539): 16.1 µM (inactive)
GI50 (SK-MEL-28): 15.4 µM (inactive)
GI50 (SK-OV-3): 22.5 µM (inactive)
GI50 (SNB-75): 26.2 µM (inactive)
GI50 (SW-620): 2.54 µM (inactive)
GI50 (UACC-257): 16.7 µM (inactive)
GI50 (UACC-62): 13.1 µM (inactive)

CC1CC(=O)N(N(C)C)C(C#N)(C#N)C1(C#N)C#N (stereo not given)
GI50 (A498): 17.8 µM (inactive)
GI50 (CCRF-CEM): 0.638 µM (active)
GI50 (EKVX): 23 µM (inactive)
GI50 (HCT-116): 17 µM (inactive)
GI50 (HL-60): 0.653 µM (active)
GI50 (HT-29): 17.2 µM (inactive)
GI50 (KM12): > 44.1 µM (inactive)
GI50 (M14): 15.8 µM (inactive)
GI50 (NCI-H226): 28.1 µM (inactive)
GI50 (OVCAR-3): 20.5 µM (inactive)
GI50 (PC-3): 18.4 µM (inactive)
GI50 (RXF 393): 10.6 µM (inactive)
GI50 (SF-295): > 50.1 µM (inactive)
GI50 (SF-539): 24.2 µM (inactive)
GI50 (SK-MEL-28): 16.1 µM (inactive)
GI50 (SK-OV-3): 29.5 µM (inactive)
GI50 (SNB-75): > 35.6 µM (inactive)
GI50 (SW-620): 5.12 µM (inactive)
GI50 (UACC-257): 15.1 µM (inactive)
GI50 (UACC-62): 18.3 µM (inactive)

C/C(=N\Nc1nc2ccccc2[nH]1)c1ncccn1
GI50 (A498): 0.0851 µM (active)
GI50 (CCRF-CEM): 0.0303 µM (active)
GI50 (EKVX): 0.026 µM (active)
GI50 (HCT-116): 0.0226 µM (active)
GI50 (HL-60): < 0.01 µM (active)
GI50 (HT-29): 0.0236 µM (active)
GI50 (KM12): 0.136 µM (active)
GI50 (M14): 0.0417 µM (active)
GI50 (NCI-H226): 0.0422 µM (active)
GI50 (OVCAR-3): 0.871 µM (active)
GI50 (PC-3): 1.92 µM (inactive)
GI50 (RXF 393): 0.0771 µM (active)
GI50 (SF-295): 0.0453 µM (active)
GI50 (SF-539): 0.0172 µM (active)
GI50 (SK-MEL-28): 0.0948 µM (active)
GI50 (SK-OV-3): 0.214 µM (active)
GI50 (SNB-75): 0.119 µM (active)
GI50 (SW-620): 0.0344 µM (active)
GI50 (UACC-257): 0.136 µM (active)
GI50 (UACC-62): 0.0693 µM (active)

CCCCC(=O)OCC(=O)[C@]1(O)Cc2c(O)c3c(c(O)c2[C@@H](OC2CC(NC(=O)C(F)(F)F)C(O)C(C)O2)C1)C(=O)c1c(OC)cccc1C3=O (stereo not given in full)
GI50 (A498): 0.247 µM (active)
GI50 (CCRF-CEM): 0.135 µM (active)
GI50 (EKVX): 2.43 µM (inactive)
GI50 (HCT-116): 0.294 µM (active)
GI50 (HL-60): 0.126 µM (active)
GI50 (HT-29): 0.74 µM (active)
GI50 (KM12): 0.787 µM (active)
GI50 (M14): 0.832 µM (active)
GI50 (NCI-H226): 0.0401 µM (active)
GI50 (OVCAR-3): 2.96 µM (inactive)
GI50 (PC-3): 1.14 µM (inactive)
GI50 (RXF 393): 0.82 µM (active)
GI50 (SF-295): 0.308 µM (active)
GI50 (SF-539): 0.387 µM (active)
GI50 (SK-MEL-28): 1.73 µM (inactive)
GI50 (SK-OV-3): 0.345 µM (active)
GI50 (SNB-75): 1.02 µM (active)
GI50 (SW-620): 0.261 µM (active)
GI50 (UACC-257): 1.3 µM (inactive)
GI50 (UACC-62): 0.184 µM (active)

CC1=C(N2CC2)C(=O)c2nc3n(c2C1=O)CCC3OC(=O)CCl (stereo not given)
GI50 (A498): 0.061 µM (active)
GI50 (CCRF-CEM): 0.181 µM (active)
GI50 (EKVX): 0.217 µM (active)
GI50 (HCT-116): 0.0418 µM (active)
GI50 (HL-60): 0.206 µM (active)
GI50 (HT-29): 0.0902 µM (active)
GI50 (KM12): 0.0377 µM (active)
GI50 (M14): 0.0361 µM (active)
GI50 (NCI-H226): 0.064 µM (active)
GI50 (OVCAR-3): 0.0771 µM (active)
GI50 (PC-3): 0.0214 µM (active)
GI50 (RXF 393): 0.0338 µM (active)
GI50 (SF-295): 0.0373 µM (active)
GI50 (SF-539): 0.056 µM (active)
GI50 (SK-MEL-28): 0.0555 µM (active)
GI50 (SK-OV-3): 0.0705 µM (active)
GI50 (SNB-75): 0.0221 µM (active)
GI50 (SW-620): 0.0316 µM (active)
GI50 (UACC-257): 0.0883 µM (active)
GI50 (UACC-62): 0.0356 µM (active)

Nc1nc(O)c(Br)c(-c2cccc([N+](=O)[O-])c2)n1
GI50 (A498): > 100 µM (inactive)
GI50 (CCRF-CEM): > 100 µM (inactive)
GI50 (EKVX): > 100 µM (inactive)
GI50 (HCT-116): > 100 µM (inactive)
GI50 (HL-60): > 71.1 µM (inactive)
GI50 (HT-29): > 100 µM (inactive)
GI50 (KM12): > 100 µM (inactive)
GI50 (M14): > 38.8 µM (inactive)
GI50 (NCI-H226): 49.9 µM (inactive)
GI50 (OVCAR-3): > 100 µM (inactive)
GI50 (PC-3): > 100 µM (inactive)
GI50 (RXF 393): > 100 µM (inactive)
GI50 (SF-295): > 50.4 µM (inactive)
GI50 (SF-539): > 58.1 µM (inactive)
GI50 (SK-MEL-28): > 100 µM (inactive)
GI50 (SK-OV-3): > 61.9 µM (inactive)
GI50 (SNB-75): 55 µM (inactive)
GI50 (SW-620): > 100 µM (inactive)
GI50 (UACC-257): > 55 µM (inactive)
GI50 (UACC-62): > 51.9 µM (inactive)

CO[C@H]1Nc2c(ccc(C)c2O)C(=O)N2C=C(/C=C/C(N)=O)C[C@@H]12 [ANTHRAMYCIN METHYL ETHER]
GI50 (A498): 0.183 µM (active)
GI50 (CCRF-CEM): 0.0193 µM (active)
GI50 (EKVX): 0.0462 µM (active)
GI50 (HCT-116): 0.0382 µM (active)
GI50 (HL-60): 0.0436 µM (active)
GI50 (HT-29): 0.0256 µM (active)
GI50 (KM12): 0.0303 µM (active)
GI50 (M14): 0.0143 µM (active)
GI50 (NCI-H226): 0.128 µM (active)
GI50 (OVCAR-3): 0.0516 µM (active)
GI50 (PC-3): 0.0215 µM (active)
GI50 (RXF 393): 0.0296 µM (active)
GI50 (SF-295): 0.0199 µM (active)
GI50 (SF-539): 0.0185 µM (active)
GI50 (SK-MEL-28): 0.0299 µM (active)
GI50 (SK-OV-3): 0.0405 µM (active)
GI50 (SNB-75): 0.0228 µM (active)
GI50 (SW-620): 0.0308 µM (active)
GI50 (UACC-257): 0.0596 µM (active)
GI50 (UACC-62): 0.0151 µM (active)

From ChEMBL document CHEMBL1201862, “PubChem BioAssay data set” (2004)
